Legend:
Assay type in all cases: cell-based, Human
[1] = tested on: PBMCs; test: PBMC viability by Trypan Blue dye exclusion
Source text: Human peripheral blood mononuclear cells from a minimum of 2 donors, that have been blasted with PHA and IL-2, were counted, viability determined by Trypan Blue dye exclusion and mixed in equal ratios. Pooled donors were used to minimize the variability observed between individual donors which results from quantitative and qualitative differences in HIV infection and overall response to the PHA and IL-2 of primary lymphocyte populations. The cells were resuspended at 1×10^6 cells/mL in RPMI 1640 without phenol red supplemented with 15% Fetal Bovine Serum (heat inactivated), 2 mM L-glutamine, 100 U/mL penicillin, 100 μg/mL streptomycin, 10 μg/Ln gentamycin and IL-2 (20 U/mL, R&D Systems, Minneapolis, Minn.). Fifty microliters of cells were then distributed to the inner 60 wells of a 96 well round bottom microtiter culture plate in a standard format developed by the Infectious Disease Research department of Southern Research Institute. Each plate contains cell control wells (cells only), virus control wells (cells plus virus), and experimental wells (drug plus cells plus virus). Alternatively, cells were cultured in T25 cm^2 or T75 cm^2 tissue culture flasks at a starting density of 1×10^6 cells per ml. Serially diluted compounds were added to the microtiter plate or tissue culture flask followed by the appropriate pre-titered strain of HIV-1. For virus replication inhibition experiments the HIV-1 strain RoJo was used. This is a low passage presumable subtype B pediatric isolate with a syncytium inducing (SI) phenotype in MT-2 cells isolated by Southern Research Institute personnel. All samples were assayed in triplicate where possible with an accompanying determination of compound toxicity. The final volume per well in the microtiter plates was 200 μL. The final volume in the tissue culture flask varied depending upon experimental design and flask size. Assays were incubated for 6 days in a humidified atmosphere at 37° C., 5% CO2, after which supernatants were collected, for analysis of RT activity and cell viability by MTS dye reduction. Culture were also examined microscopically, any abnormalities noted, and in the case of tissue culture flasks cell counts and viability determined by Trypan Blue Dye exclusion.
(§1) Experiments were conducted using flow cytometry to assess the effect of the IMG compounds and cannabidiol on induction of apoptosis. Briefly, compound-treated PBMCs were assayed for apoptosis using a BrdU methodology. Table 6 summarizes the effects of the IMG Compounds on cell cycle and cell viability by Trypan Blue Dye exclusion. Table 7 reduces the changes in the cell cycle to a ratio based upon the percent of cells in G2-G1. G2-G1 cells represent transition cells that are in either G2 or G1, that cannot be distinguished based upon DNA content by flow cytometry. […] This ratio cannot be used as a quantitative factor to measure fold-increases or decreases between population, but rather to access trends in the cell cycle.

[2] = tested on: PBMCs; test: Cell cycle analysis of PBMCs by flow cytometry
Experimental: Flow cytometry studies were carried out on PHA/IL-2 induced PBMCs treated for 6 days with the various test compounds. Prior to flow cytometry the PBMCs were washed, counted and 1×10^6 cells resuspended in PBS and stained for CD4 or CD8 surface markers using anti-CD4.PE or CD8.PE (both from PharMingen) for 30 min at 4° C. The PBMC were then washed, fixed (Cytofix) and permeabilized (Cytoperm) followed by staining for apoptosis-related DNA damage. Initial experiments used the BrdU Flow Kit from PharMigen (2354KK). This kit with the appropriate software should have yielded percent apoptosis along with the number of cells in each phase of the cell cycle. However, we were not successful with this kit and subsequently used the data to look at only the distribution in the cell cycle of the PBMCs following drug treatment. We were successful in detecting apoptosis in PBMCs with the PharMingen APO-BRDU™ kit (6576KK). Using this kit, we were not able to co-stain for CD4 and CD8 due to the fluorescent tags used in the APO-BRDU™ kit. For both kits, manufacturers instructions were followed for staining and analysis of the samples. Following the appropriate staining protocol the cells were analyzed using a Becton Dickinson (Bedford, Mass.) FACSSort
as §1

[3] = tested on: PBMCs; test: PBMC apoptosis by flow cytometry (APO-BRDU kit)
Experimental: Flow cytometry studies were carried out on PHA/IL-2 induced PBMCs treated for 6 days with the various test compounds. Prior to flow cytometry the PBMCs were washed, counted and 1×10^6 cells resuspended in PBS and stained for CD4 or CD8 surface markers using anti-CD4.PE or CD8.PE (both from PharMingen) for 30 min at 4° C. The PBMC were then washed, fixed (Cytofix) and permeabilized (Cytoperm) followed by staining for apoptosis-related DNA damage. Initial experiments used the BrdU Flow Kit from PharMigen (2354KK). […] For both kits, manufacturers instructions were followed for staining and analysis of the samples. Following the appropriate staining protocol the cells were analyzed using a Becton Dickinson (Bedford, Mass.) FACSSort
In another series of experiments, the IG compounds and cannabidiol treated cells were assessed for the induction of apoptosis (see Tables 8 and 9). […] As IL-2 is an essential component for maintaining the health of PHA induced PBMCs, a second focus of these studies focuses on the effect of the compounds in the absence of IL-2.

[4] = IL-2 supplemented media, 50 μM, HIV +
[5] = IL-2 supplemented media, 50 μM, HIV −
[6] = IL-2 supplemented media, 100 μM, HIV +
[7] = IL-2 supplemented media, 100 μM, HIV −
[8] = IL-2 supplemented media, 15 μM, HIV +
[9] = IL-2 supplemented media, 15 μM, HIV −
[10] = IL-2 supplemented media, 30 μM, HIV +
[11] = IL-2 supplemented media, 30 μM, HIV −

COc1cc(C(C)(C)CCCC(C)C)cc(OC)c1OC [IG-07, 1-(1,1,5Trimethylhexyl)-3,4,5-trimethoxybenzene]
% Viable Cells ([1]; 5 μM, HIV +): 94% | % Viable Cells ([1]; 5 μM, HIV −): 92% | % Viable Cells ([1]; 100 μM, HIV +): 55% | % Viable Cells ([1]; 100 μM, HIV −): 50% | % 7-AAD positive per cell cycle phase G0-G1 ([2]; 5 μM, HIV +): 89% | % 7-AAD positive per cell cycle phase G2-G1 ([2]; 5 μM, HIV +): 2% | % 7-AAD positive per cell cycle phase G2-M ([2]; 5 μM, HIV +): 10% | % of cells in cell cycle phase ([2]; 5 μM, HIV +): 0% | % 7-AAD positive per cell cycle phase G0-G1 ([2]; 5 μM, HIV −): 89% | % 7-AAD positive per cell cycle phase G2-G1 ([2]; 5 μM, HIV −): 2% | % 7-AAD positive per cell cycle phase G2-M ([2]; 5 μM, HIV −): 6.9% | % of cells in cell cycle phase ([2]; 5 μM, HIV −): 0% | % 7-AAD positive per cell cycle phase G0-G1 ([2]; 100 μM, HIV +): 95% | % 7-AAD positive per cell cycle phase G2-G1 ([2]; 100 μM, HIV +): 2% | % 7-AAD positive per cell cycle phase G2-M ([2]; 100 μM, HIV +): 3.1% | % of cells in cell cycle phase ([2]; 100 μM, HIV +): 1.7% | % 7-AAD positive per cell cycle phase G0-G1 ([2]; 100 μM, HIV −): 94% | % 7-AAD positive per cell cycle phase G2-G1 ([2]; 100 μM, HIV −): 2% | % 7-AAD positive per cell cycle phase G2-M ([2]; 100 μM, HIV −): 0.2% | % of cells in cell cycle phase ([2]; 100 μM, HIV −): 6% | % Apoptosis ([3]; IL-2 deficient media, 50 μM, HIV +): 32.6% | % Apoptosis ([3]; IL-2 deficient media, 50 μM, HIV −): 27% | % Apoptosis ([3]; IL-2 deficient media, 100 μM, HIV +): 64% | % Apoptosis ([3]; IL-2 deficient media, 100 μM, HIV −): 54% | % Apoptosis [3, 4]: 16% | Fold Change [3, 4]: 1 | % Apoptosis [3, 5]: 14.4% | Fold Change [3, 5]: 1.2 | % Apoptosis [3, 6]: 22.5% | Fold Change [3, 6]: 1.4 | % Apoptosis [3, 7]: 22.8% | Fold Change [3, 7]: 2

CC(C)=CCCC1(C)CCc2c(O)cc(C(C)(C)CCCC(C)C)cc2O1 (stereo not drawn) [IG-08, 3,4-Dihydro-2-methyl-2-(4-methyl-3-pentenyl)-7-(1,1,5-trimethylhexyl)-2H-1-benzopyran-5-ol]
% Viable Cells ([1]; 15 μM, HIV +): 94% | % Viable Cells ([1]; 15 μM, HIV −): 89% | % Viable Cells ([1]; 30 μM, HIV +): 67% | % Viable Cells ([1]; 30 μM, HIV −): 62% | % 7-AAD positive per cell cycle phase G0-G1 ([2]; 15 μM, HIV +): 98% | % 7-AAD positive per cell cycle phase G2-G1 ([2]; 15 μM, HIV +): 2% | % 7-AAD positive per cell cycle phase G2-M ([2]; 15 μM, HIV +): 0.08% | % of cells in cell cycle phase ([2]; 15 μM, HIV +): 2.4% | % 7-AAD positive per cell cycle phase G0-G1 ([2]; 15 μM, HIV −): 91% | % 7-AAD positive per cell cycle phase G2-G1 ([2]; 15 μM, HIV −): 2% | % 7-AAD positive per cell cycle phase G2-M ([2]; 15 μM, HIV −): 8.7% | % of cells in cell cycle phase ([2]; 15 μM, HIV −): 0% | % 7-AAD positive per cell cycle phase G0-G1 ([2]; 30 μM, HIV +): 99% | % 7-AAD positive per cell cycle phase G2-G1 ([2]; 30 μM, HIV +): 2% | % 7-AAD positive per cell cycle phase G2-M ([2]; 30 μM, HIV +): 0.15% | % of cells in cell cycle phase ([2]; 30 μM, HIV +): 0.9% | % 7-AAD positive per cell cycle phase G0-G1 ([2]; 30 μM, HIV −): 98% | % 7-AAD positive per cell cycle phase G2-G1 ([2]; 30 μM, HIV −): 2% | % 7-AAD positive per cell cycle phase G2-M ([2]; 30 μM, HIV −): 0.6% | % of cells in cell cycle phase ([2]; 30 μM, HIV −): 1% | % Apoptosis ([3]; IL-2 deficient media, 15 μM, HIV +): 29% | % Apoptosis ([3]; IL-2 deficient media, 15 μM, HIV −): 18.4% | % Apoptosis ([3]; IL-2 deficient media, 30 μM, HIV +): 13.8% | % Apoptosis ([3]; IL-2 deficient media, 30 μM, HIV −): 11.7% | % Apoptosis [3, 8]: 19.3% | Fold Change [3, 8]: 1.2 | % Apoptosis [3, 9]: 17.3% | Fold Change [3, 9]: 1.2 | % Apoptosis [3, 10]: 32.1% | Fold Change [3, 10]: 2 | % Apoptosis [3, 11]: 27.5% | Fold Change [3, 11]: 2.3

C=C(C)[C@@H]1CCC(C)=C[C@H]1c1c(O)cc(CCCCC)cc1O [Cannabidiol, reference compound]
% Viable Cells ([1]; 1 μM, HIV +): 94% | % Viable Cells ([1]; 1 μM, HIV −): 85% | % Viable Cells ([1]; 25 μM, HIV +): 55% | % Viable Cells ([1]; 25 μM, HIV −): 86% | % Viable Cells ([1]; 35 μM, HIV +): 61% | % Viable Cells ([1]; 35 μM, HIV −): 61% | % 7-AAD positive per cell cycle phase G0-G1 ([2]; 1 μM, HIV +): 94% | % 7-AAD positive per cell cycle phase G2-G1 ([2]; 1 μM, HIV +): 2% | % 7-AAD positive per cell cycle phase G2-M ([2]; 1 μM, HIV +): 5.7% | % of cells in cell cycle phase ([2]; 1 μM, HIV +): 0% | % 7-AAD positive per cell cycle phase G0-G1 ([2]; 1 μM, HIV −): 91% | % 7-AAD positive per cell cycle phase G2-G1 ([2]; 1 μM, HIV −): 2% | % 7-AAD positive per cell cycle phase G2-M ([2]; 1 μM, HIV −): 9.2% | % of cells in cell cycle phase ([2]; 1 μM, HIV −): 0% | % 7-AAD positive per cell cycle phase G0-G1 ([2]; 25 μM, HIV +): 96% | % 7-AAD positive per cell cycle phase G2-G1 ([2]; 25 μM, HIV +): 2% | % 7-AAD positive per cell cycle phase G2-M ([2]; 25 μM, HIV +): 0% | % of cells in cell cycle phase ([2]; 25 μM, HIV +): 4.2% | % 7-AAD positive per cell cycle phase G0-G1 ([2]; 25 μM, HIV −): 96.4% | % 7-AAD positive per cell cycle phase G2-G1 ([2]; 25 μM, HIV −): 2% | % 7-AAD positive per cell cycle phase G2-M ([2]; 25 μM, HIV −): 0.05% | % of cells in cell cycle phase ([2]; 25 μM, HIV −): 3.6% | % 7-AAD positive per cell cycle phase G0-G1 ([2]; 35 μM, HIV +): 98% | % 7-AAD positive per cell cycle phase G2-G1 ([2]; 35 μM, HIV +): 2% | % 7-AAD positive per cell cycle phase G2-M ([2]; 35 μM, HIV +): 0% | % of cells in cell cycle phase ([2]; 35 μM, HIV +): 2.6% | % 7-AAD positive per cell cycle phase G0-G1 ([2]; 35 μM, HIV −): 95.5% | % 7-AAD positive per cell cycle phase G2-G1 ([2]; 35 μM, HIV −): 2% | % 7-AAD positive per cell cycle phase G2-M ([2]; 35 μM, HIV −): 0% | % of cells in cell cycle phase ([2]; 35 μM, HIV −): 4.5% | % Apoptosis [3, 8]: 20.0% | Fold Change [3, 8]: 1.2 | % Apoptosis [3, 9]: 20.5% | Fold Change [3, 9]: 1.7 | % Apoptosis [3, 10]: 74% | Fold Change [3, 10]: 4.6 | % Apoptosis [3, 11]: 22% | Fold Change [3, 11]: 1.8

— US20040242870A1, “Antiviral methods and compounds” (priority 2000, published 2004)
